Laboratory results reported in patent US8642794B1, “Biosurfactant compounds produced by Aureobasidium pullulans” (Gyeongbuk Institute for Marine Bio-industry, priority 2012, dated 2014).

Assay: Surface tension measurement with a tensiometer (Sigma 700), aqueous solution dropped onto a hydrophobic film
Format: physicochemical
Details: at 1.0 mg/liter; water as control
Procedure: The compounds L3-E3 and L3-E6 isolated in Examples 2 and 4, respectively, were dropped onto the surface of a hydrophobic film, and their surface tension was measured by using a tensiometer (Sigma 700 Tensiometer, KSV Instruments Ltd., Finland). Here, water was used as a control, and the change in surface tension was measured by using a microbial culture, L3-E3 and L3-E6.

Row | Structure (SMILES) | surface tension
1 | CCCCCC(O)CC(O)CC(=O)OC(CCCCC)CC(O)CC(=O)OC (centres unmarked) [L3-E3] | 29.5 dyne/cm
2 | CCCCCC(O)CC(O)CC(=O)OC(CCCCC)CCCC(=O)OC (centres unmarked) [L3-E6] | 36.4 dyne/cm
